{
  "source": "paper PMC7496508",
  "about": "“Modular Medical Imaging Agents Based on Azide–Alkyne Huisgen Cycloadditions: Synthesis and Pre‐Clinical Evaluation of ^18F‐Labeled PSMA‐Tracers for Prostate Cancer Imaging” (Chemistry (Weinheim an Der Bergstrasse, Germany), 2020)",
  "key": {"[1]": {"test": "radiotracer stability in formulation, radio-HPLC", "assay_type": "physicochemical", "settings": "10 % EtOH/PBS, 4 h", "experimental": "Clinical translation requires higher amounts of radioactivity than those manually achievable, which are limited by radiation burden for the radiochemist. Therefore, the synthesis of [^18F]PSMA‐MIC01 was automated on a FlowSafe radiosynthesis module, a continuous‐flow microfluidics platform (see Supporting Information for details). [^18F]PSMA‐MIC01 was produced in an overall RCY of 21 % with an overall production time of 139 min (see Supporting Information for experimental details). The higher RCY can be explained by the use of the microfluidic set up for the [^18F]fluorination towards intermediate [^18F]9. Microfluidic systems have a higher surface‐to‐volume ratio which results in an increased heat transfer capacity compared to in‐batch syntheses.62 This enabled reduction of the effective reaction time of the [^18F]fluorination to 75 s with concomitant reduction of ^18F‐side‐products and increased the intermediary RCY of [^18F]9 to 42 % and overall RCY to 21 %. […] The measured lipophilicity (logD) in n‐octanol/PBS was −3.01±0.22 (see Supporting Information). […]\nThe stabilities of [18F]PSMA-MIC01 and [18F]PSMA-MIC02 were tested, to ensure the integrity of the tracer in solution. […] After purification and formulation into an injectable solution of 10 % EtOH in PBS, the radiotracer was analysed by HPLC again (B),which was repeated after 2 h (C) and 4 h (D). […]"}, "[2]": {"system": "PC3 (PSMA-) xenografts", "test": "ex vivo organ distribution, PC3 xenograft mice", "assay_type": "in vivo, Balb/c nude mice", "settings": "dissected after PET scan", "experimental": "All groups were evaluated by visual assessment of the PET image and the percentage injected dose per gram (%ID g^−1).\n(§1) The animal experiments were all performed according to the ethical guidelines and approved by the local animal welfare committee of the University of Groningen (IvD number 15166-06-001. All animals were caged separately in individually ventilated cages.\n(§2) 7-12 week old immune deficient Balb/c nude mice were inoculated with 200 µL of a 1:1 suspension of medium containing approximately 4 x10^6 LNCaP cells (PSMA positive cells) or 5 x 10^6 PC3 cells (PSMA-negative cells) in RPMI-1640, and Matrigel Basement Membrane Matrix High concentration. The cells were subcutaneously inoculated on the right shoulder.\nAfter 3 to 5 weeks for LNCaP-xenografts, 2-3 weeks for PC3-xenografts or when a tumor size of 1cm3 was reached, the animals were transported to the PET imaging facility. […]\nAnimals were anesthetized at 5 % isoflurane and maintained under 2 % isoflurane enriched with O2. The dynamic PET scan was started within 5 min after tracer injection with an acquisition time of 90 min. The static scan was performed 60 min after tracer injection with an acquisition time of 30 min.\n7.2. Organ distribution and Metabolite analysis.\nAfter sacrificing the animals, the organs were dissected and measured in a γ-counter. The obtained CPM’s were normalized to %ID/g (Table shown in main text). […]\n(§3) In order to check for the significant differences, we also checked for the Cohen’s d, a measurement to determine the effect size. It is calculated on the following formula:\n(§4) Cohen′sD = Mean1− Mean2 . […]"}, "[3]": {"system": "LNCaP (PSMA+) xenografts", "test": "PET image quantification of organ distribution (SUVmeanBW), LNCaP xenograft mice", "assay_type": "in vivo, Balb/c nude mice", "experimental": "The in vivo imaging potential of [^18F]PSMA‐MIC01 was evaluated using a murine animal model (see Supporting Information for experimental details).65 This was performed in a procedure that involved the study of the tumor uptake, binding specificity and comparison to [^68Ga]PSMA‐11. Tumor uptake of [^18F]PSMA‐MIC01 was assessed by performing a 90 min dynamic PET scan.\nas §1, §2\nAfter 3 to 5 weeks for LNCaP-xenografts, 2-3 weeks for PC3-xenografts or when a tumor size of 1cm3 was reached, the animals were transported to the PET imaging facility. For the […]\nprepared and 100 µL were injected via penile vein injection 30 min prior to the tracer injection. Animals were anesthetized at 5 % isoflurane and maintained under 2 % isoflurane enriched with O2. The dynamic PET scan was started within 5 min after tracer injection with an acquisition time of 90 min. The static scan was performed 60 min after tracer injection with an acquisition time of 30 min. […]\nas §3, §4"}, "[4]": {"settings": "LNCaP-blocked (PSMA+), 2-PMPA prior to tracer"}},
  "note": "“And” between values parts separate entries of the source, which are not always exact repeats. Equal values may be shown once.",
  "data": [
    {"smiles": "O=C(O)CC[C@H](NC(=O)N[C@@H](CCCCNC(=O)c1ccc(-c2cn(CCOCCOCC[18F])nn2)cc1)C(=O)O)C(=O)O", "note": "[[^18F]PSMA‐MIC01]", "values": [
      {"measurement": "stability of the radiotracer", "setting": "[1]", "value": "No degradation products could be detected"},
      {"measurement": "ex vivo uptake bone", "setting": "[2]", "value": "0.5±0.2", "unit": "%ID g^−1"},
      {"measurement": "ex vivo uptake brain", "setting": "[2]", "value": "0.2±0.1", "unit": "%ID g^−1"},
      {"measurement": "ex vivo uptake heart", "setting": "[2]", "value": "1.0±0.6", "unit": "%ID g^−1"},
      {"measurement": "ex vivo uptake kidney", "setting": "[2]", "value": "39.8±28.8", "unit": "%ID g^−1"},
      {"measurement": "ex vivo uptake large intestine", "setting": "[2]", "value": "1.4±0.5", "unit": "%ID g^−1"},
      {"measurement": "ex vivo uptake liver", "setting": "[2]", "value": "9.4±2.9", "unit": "%ID g^−1"},
      {"measurement": "ex vivo uptake lungs", "setting": "[2]", "value": "2.1±1.1", "unit": "%ID g^−1"},
      {"measurement": "ex vivo uptake muscles", "setting": "[2]", "value": "0.6±0.3", "unit": "%ID g^−1"},
      {"measurement": "ex vivo uptake pancreas", "setting": "[2]", "value": "0.8±0.3", "unit": "%ID g^−1"},
      {"measurement": "ex vivo uptake plasma", "setting": "[2]", "value": "6.0±3.5", "unit": "%ID g^−1"},
      {"measurement": "ex vivo uptake salivary glands", "setting": "[2]", "value": "1.1±0.6", "unit": "%ID g^−1"},
      {"measurement": "ex vivo uptake small intestine", "setting": "[2]", "value": "1.3±0.6", "unit": "%ID g^−1"},
      {"measurement": "ex vivo uptake spleen", "setting": "[2]", "value": "3.1±1.4", "unit": "%ID g^−1"},
      {"measurement": "ex vivo uptake stomach", "setting": "[2]", "value": "1.2±0.6", "unit": "%ID g^−1"},
      {"measurement": "ex vivo uptake tumor", "setting": "[2]", "value": "3.0±1.8 %ID g^−1 and 3.0±1.7 %ID g^−1"},
      {"measurement": "ex vivo uptake urine", "setting": "[2]", "value": "184±260", "unit": "%ID g^−1"},
      {"measurement": "ex vivo uptake whole blood", "setting": "[2]", "value": "3.4±1.8", "unit": "%ID g^−1"},
      {"measurement": "SUVmeanBW Bladder", "setting": "[3]; LNCaP (PSMA+) xenograft", "value": "10.2 ± 6.7"},
      {"measurement": "SUVmeanBW Brain", "setting": "[3]; LNCaP (PSMA+) xenograft", "value": "0.2 ± 0.1"},
      {"measurement": "SUVmeanBW Heart", "setting": "[3]; LNCaP (PSMA+) xenograft", "value": "0.4 ± 0.2"},
      {"measurement": "SUVmeanBW Kidney", "setting": "[3]; LNCaP (PSMA+) xenograft", "value": "4.4 ± 1.4"},
      {"measurement": "SUVmeanBW Liver", "setting": "[3]; LNCaP (PSMA+) xenograft", "value": "0.8 ± 0.2"},
      {"measurement": "SUVmeanBW Muscle", "setting": "[3]; LNCaP (PSMA+) xenograft", "value": "0.2 ± 0.1"},
      {"measurement": "SUVmeanBW Tumor", "setting": "[3]; LNCaP (PSMA+) xenograft", "value": "0.6 ± 0.4"},
      {"measurement": "SUVmeanBW Bladder", "setting": "[3]; [4]", "value": "20.7 ± 12.4"},
      {"measurement": "SUVmeanBW Brain", "setting": "[3]; [4]", "value": "0.1 ± 0.0"},
      {"measurement": "SUVmeanBW Heart", "setting": "[3]; [4]", "value": "0.4 ± 0.1"},
      {"measurement": "SUVmeanBW Kidney", "setting": "[3]; [4]", "value": "2.6 ± 1.7"},
      {"measurement": "SUVmeanBW Liver", "setting": "[3]; [4]", "value": "0.8 ± 0.4"},
      {"measurement": "SUVmeanBW Muscle", "setting": "[3]; [4]", "value": "0.2 ± 0.1"},
      {"measurement": "SUVmeanBW Tumor", "setting": "[3]; [4]", "value": "0.3 ± 0.1"}
    ]}
  ]
}
